Reference: patent US11149035B2, “Chemical compounds as H—PGDS inhibitors” (GlaxoSmithKline Intellectual Property Development Limited, priority 2017, dated 2021)

Biological target: T1, haematopoietic prostaglandin D synthase (H-PGDS) (Homo sapiens, UniProt O60760)
T1 construct: Full length human H-PGDS cDNA (Invitrogen Ultimate ORF IOH13026) was amplified by PCR; 6-His (N); TEV protease cleavage site (N); made in house; host or cells: E. coli BL21 (DE3*)
Experiment: H-PGDS RapidFire high throughput mass spectrometry assay (conversion of PGH2 to PGD2)
Type: biochemical
Details: 10 nM H-PGDS, PGH2 formed in situ by COX-2 from arachidonic acid; four parameter curve fit; read-out: Potency Range (mean pIC50) (converted)
Method in brief: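 His-tagged full-length human H-PGDS from E. coli converts PGH2, generated in situ at ~10 μM from arachidonic acid by FLAG-tagged human COX-2 from Sf9 cells. RapidFire SPE-triple quadrupole MS measures PGD2 against PGF2α as substrate surrogate; percent conversion is calculated.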

T1 sequence (O60760 whole entry): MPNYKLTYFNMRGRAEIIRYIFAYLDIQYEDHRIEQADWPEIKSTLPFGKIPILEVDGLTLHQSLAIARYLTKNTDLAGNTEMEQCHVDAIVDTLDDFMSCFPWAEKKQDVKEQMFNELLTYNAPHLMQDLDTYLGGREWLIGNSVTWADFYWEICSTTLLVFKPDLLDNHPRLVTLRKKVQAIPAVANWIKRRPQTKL

## CC(C)(O)[C@H]1CC[C@H](NC(=O)c2cnc3nc(C4CC4)ccc3c2)CC1 [Example 21, 7-Cyclopropyl-N-((trans)-4-(2-hydroxypropan-2-yl)cyclohexyl)-1,8-naphthyridine-3-carboxamide]
  IC50: < 10 nM
